Assays:
[1] = tested on: chronic viral hepatitis B (HBV); assay: Patients with chronic viral hepatitis B; assay type: in vivo, human
Procedure: Previous treatment: from 17 Sep. 1997 the patient was administered with acyclovir during 21 days.

[2] = tested on: human peripheral blood mononuclear leukocytes; conditions: 0.5-5000 mg/mL, ConA, 24 hours
Procedure: Oxidized glutathione (GSSG) as well as a structural analog thereof, which is a hexapeptide with a stabilized disulfide bond, were evaluated for their effect on cytokine production by human peripheral blood mononuclear leukocytes in vitro.
The leukocytic cytokine production was triggered by adding a mitogen, concanavalin A (ConA) to the cell culture immediately after introducing the test substances. In 24 hours of the cellular exposure to ConA and the test articles, the culture supernatants were sampled and stored until cytokine determination at −70° C. […]
Each concentration was established in no less than six wells by adding 50 mL of medium containing the appropriate quantity of the previously dissolved test articles. […]
Immediately after the test articles had been introduced into the cultures, 50 mL of medium containing ConA (Sigma, cell culture tested) in a quantity required for a final concentration of 4.0 mg/mL, was added to all the wells excepting three additional ones which served for evaluation of spontaneous ^3H-thymidine uptake (without ConA). […]
The filters were dried and their radioactivity (counts per minute, cpm) was determined using liquid scintillation counter, Betaplate 1205 (LKB). […]

[3] = tested on: mice irradiated in a dose of 1 Gy; conditions: 5 mg/kg intraperitoneally daily for seven days, 8th day
Excerpt: The study was designed to evaluate efficacy of seven-day daily administration of the test articles (with the dosing started two hours post-exposure) on the capability of the splenocytes from mice exposed to radiation to produce interleukin-1 (IL-1 α,b); interleukin-2 (IL-2); interleukin-3 (IL-3); interleukin-4 (IL-4); interleukin-6 (IL-6), interleukin-8 (IL-8); interleukin-10 (IL-10); interleukin-12 (IL-12); tumor necrosis factor-α, g (TNF-α, g), interferon-α, g (IFN-α,) and G-CSF, M-CSF, GM-CSF in vitro. In addition, the blood leukocyte and lymphocyte counts and the spleen and bone marrow cellularity (karyocyte count), as we well as splenic and medullary colony-stimulating capacity, were determined at the 8th day post-exposure.
Male CBA mice (18 to 20 g body weight) were irradiated with single dose of 180 kV X-rays filtered with 0.5 mm Cu (at 15 mA, distance—70 cm, duration two min. and 28 sec.). The total absorbed dose comprised approximately 1 Gy. […]
Additionally, hemopoietic colony-formation ability of spleen and bone marrow cells was assessed by the method of colony-forming unit (CFU) direct count in the spleens of irradiated singenic CBA mice receiving intravenously spleen or bone marrow cells obtained from animals of control or test groups.

stomach cancer = assay: Patient with stomach cancer, peritoneal metastases, ascites, splenomegaly and cholestatic hepatitis
Procedure: A patient was diagnosed as having stomach neoplasm for more than two years (adenocarcinoma of moderate differentiation degree).
A decision was taken to apply GSSG drug form. The drug was injected parenterally (intramuscularly and intravenously), and additionally, the drug form was used via local injections around the tumor tissue through an endoscope. An average doses which were used for intramuscular and intravenous injections—0.1-0.5 mg/kg, and for local injections—up to 50 mg in situ. Parenteral injections of the drug were applied every other day, b.i.d. (intravenous injections at the morning, and intramuscular ones at the evening), during three weeks, and after that, two times a week during four weeks. The drug introduction through the endoscope was performed once in seven days.
The tumor was solid-like type. Stomach walls were rigid. Histology examination defined the tumor as a moderate degree differentiation adenocarcinoma. […] The drug was introduced according to the identical regime: parenterally (intramuscularly and intravenously), and additionally, the drug form was introduced via local injections around the tumor tissue through an endoscope. An average doses which were used for intramuscular and intravenous injections—0.1-0.5 mg/kg, and for local injections—up to 50 mg in situ. Parenteral injections of the drug were applied every other day, b.i.d. (intravenous injections at the morning, and intramuscular ones at the evening), during three weeks, and after that, two times in a week during four weeks. The drug introduction through the endoscope was performed once in seven days.

HL-60 myeloid line cells = assay: Growth and apoptotic DNA degradation, HL-60 cells; conditions: 100 mg/mL
Procedure: The HL-60 myeloid line cells were grown in RPMI-1640 medium with addition of 10% fetal calf serum. Cultivation was carried out in closed flasks, the medium volume was 12 mL, it was replaced every four days.
(§1) The effect testing for the testing articles was performed 24, 48 hours after addition into the culture.
The analysis procedure involved the following: after 24-48 hour incubation there were calculated the total cell count and the dead cell count by the Trypan blue exclusion method; afterwards the cell suspension was centrifuged (at 12.000 g, in Eppendorf test-tubes during 10 min).
The HL-60 cell culture is human cells of myeloluekosis origin defective in the p53 gene.

normal human lymphocytes = assay: Growth and apoptotic DNA degradation, normal human lymphocytes; conditions: 100 mg/mL, 24, 48 hours
Procedure: Venous blood of healthy volunteers was collected into heparinized test-tubes, which had been tested for endotoxin. A mononuclear fraction of blood leukocytes was obtained by centrifugation in ficoll-metrizoat gradient (Histopaque, Sigma). Cell concentration was adjusted to 2×10^6 cells per 1 ml of cell culture medium (RPMI 1640), containing 20 mM HEPES, 2 mM glutamine, 50 mg/mL gentamicin and 10% fetal calf serum. Cell viability was estimated by the Trypan blue exclusion method, then the cell suspension was placed into wells of 24- and 96-well microliter plates—250,000 cells per well.
as §1
The analysis procedure involved the following: after 24-48 hour incubation there were calculated the total cell count and the dead cell count by the Trypan blue exclusion method; afterwards the cell suspension was centrifuged (at 12.000 g, in Eppendorf test-tubes during 10 min). The cell pellet was frozen and kept at −70° C. before the DNA separation. The DNA separation was conducted by Kirbi-Georgiyev phenol method. […] Then it was diluted in 10 mL of the A buffer; the DNA amount was determined by Dishe method and electrophoresis was performed in 2% agarose gel (agarose with NA grade made by “Pharmacia LKB, Biotechnology Inc” (Austria) was used). […]

[4] = tested on: glutathione reductase, glutathione-peroxidase, glutathione-S-transferase, γ-glutamyl-transpeptidase; conditions: intravenous, 2 mg/kg
Procedure: In addition, the activity variation of the enzymes participating in GSSG metabolism was evaluated (glutathione reductase, glutathione-peroxidase, glutathione-S-transferase,γ-glutamyl-transpeptidase).
Activity of the enzymes participating in the GSSG metabolism (glutathione reductase: EC. 1.6.4.2; glutathione-peroxidase: EC. 1.11.1.9; glutathione-S-transferase: EC.2.5.1.18; g-glutamyl-transpeptidase: EC.2.3.2.2) were determined by the standard reagent kits produced by Boehringer Mannheim GmbH.

CP-treated mice = assay: Cyclophosphamide-induced hemo- and immunodepression, murine model; conditions: CP 50 mg/kg; 5 mg/kg intraperitoneally daily for five days; day 8
Excerpt: The study was designed to evaluate the effect of a five-day long administration of the test articles on the capability of the CP-treated murine splenocytes to produce interleukin-1 (IL-1 α,b); interleukin-2 (IL-2); interleukin-3 (IL-3); interleukin-4 (IL-4); interleukin-6 (IL-6), interleukin-8 (IL-8); interleukin-10 (IL-10); interleukin-12 (IL-12); tumor necrosis factor-α, g (TNF-α, g), interferon-α, g (IFN-α, g) and G-CSF, M-CSF, GM-CSF in vitro. In addition, the blood leukocyte and lymphocyte count and the bone marrow cellularity (karyocyte count) were determined at eight days after CP administration. Some animals receiving CP were then challenged with sheep red blood cells (SRBC), and the humoral immune response to the antigen was evaluated.
Male CBA mice (180 to 200 g body weight) were given a single introperitoneal injection of CP in a dose of 50 mg/kg. Four groups of animals (with no less than 15 mice in each) were formed.
#3—animals receiving a single CP injection, which further were treated with the test article (GSSG dissolved in normal saline) in a dose of 5 mg/kg;
Twenty-four hours after the CP injection, five animals in each group were immunized with SRBC (10^7 cells in 0.5 mL of NS, intra-peritoneally).
Injections were performed during five days: once a day, daily. […]

[5] = patient No. 4, previous treatment during 21 days
[6] = two months after treatment start

Compound	ALT after the course completion [1, 5]	Hbs Ag degree [1, 5]	bilirubin after the course completion [1, 5]	cytokine production by human mononuclear leukocytes [2]	cytokine and hemopoietic factor production by splenocytes [3]	tumor size decrease (stomach cancer; fibrogastrocopy data)	hematology and blood chemistry indices (stomach cancer; [6])	liver protrusion below the costal arch (stomach cancer; [6])	tumor extent at fibrogastroscopy (stomach cancer; two months after treatment start, before: about 8 cm (GSSG course), about 6 cm (GSSG.Pt course))	DNA electrophoresis (apoptotic ladder) (HL-60 myeloid line cells; 24 and 48 hours)	high molecular DNA in the apoptotic ladder (HL-60 myeloid line cells; FIG. 14)	dead HL-60 cell quantity (HL-60 myeloid line cells; Trypan blue exclusion)	normal cell proliferation (normal human lymphocytes)	activity of the enzymes participating in the thiol (glutathione) metabolism [4]	liver protrusion beyond the costal arch after the treatment course ([1]; patient No. 3 (GSSG, before 2 cm), patient No. 4 (GSSG.Pt, before 2.5 cm))	cytokine and hemopoietic factor production by splenocytes (CP-treated mice)
Nc1nc2c(ncn2COCCO)c(=O)[nH]1 [acyclovir]	2.1 mmol/h/L	did not change	32 mmoVL	–	–	–	–	–	–	–	–	–	–	–	–	–
bis-(γ-L-glutamyl)-L-cysteinyl-bis-glycine [GSSG]	–	–	–	statistically significant and dose-dependent stimulation of the cytokine production	less significant effect	40%	substantial improvement of hematology and blood chemistry indices	3 cm	4.8 cm	revealed the DNA oligonucleosomic degradation	contained considerable amount of the high molecular DNA	reliably lower than the one after the GSSG.Pt effect	stimulated the normal cell proliferation	increases approximately two times the activity	0.5 cm	only exiguous stimulating effect

From patent US7371411B2, “Methods for production of the oxidized glutathione composite with CIS-diamminedichloroplatinum and pharmaceutical compositions based thereof regulating metabolism, proliferation, differentiation and apoptotic mechanisms for normal and transformed cells” (Novelos Therapeutics, Inc., priority 1998, dated 2008)
